Data from publication PMC11364104, “Discovery of SARS-CoV-2 papain-like protease (PL^pro) inhibitors with efficacy in a murine infection model” (Science Advances, 2024).

What was measured:
[1] = molecular target: T1, human Nav1.5 sodium channel (Homo sapiens, UniProt Q14524); assay: hNav1.5 automated patch clamp; assay type: cell-based; conditions: read-out: NaV IC50
T1 construct: assay run at Metrion Biosciences Ltd; host or cells: CHO
Procedure: Hz, and hCav1.2 current was measured as the peak current at 0 mV. All studies were […]
Three vehicle periods each lasting 5 minutes were applied to establish a stable baseline.
This was followed by the addition of increasing concentrations of test compound, with each exposure lasting 5 minutes. Patch clamp data were analyzed using Analyzer Software 6.4.72. Current amplitudes were determined by averaging the last 4 currents under each test condition. The percentage inhibition of each compound was determined by taking the ratio of current amplitude measured in the presence of various concentrations of the test compound (ICompound) versus the vehicle control current (IVehicle): % Inhibition = [1-(I Compound/IVehicle)] * 100%. A dose-response curve was generated and fit to the Hill equation by the Sophion Analyzer software to determine an IC50 value for each compound. The minimum and the […]
CHO cells stably expressing the human Nav1.5 sodium channel (University of Pennsylvania, Philadelphia, PA, hNav1.5 clone #6) were cultured in Hams F12 + Glutamax media supplemented with 10% FBS and Geneticin (0.5 mg/mL) at 37°C and 5% CO2 and subcultured every 2-3 days in T175 flasks. […]
Ionic currents were evaluated in the whole-cell configuration using the Qube384 platform using QChip 384x plates. […]

hCoV-229E_PLpro2 = hCoV-229E_PLpro2 (Human coronavirus 229E, UniProt P0C6X1); assay: biochemical; parameters: species or system 229E-CoV
Chain of hCoV-229E_PLpro2 (P0C6X1 1663-1914): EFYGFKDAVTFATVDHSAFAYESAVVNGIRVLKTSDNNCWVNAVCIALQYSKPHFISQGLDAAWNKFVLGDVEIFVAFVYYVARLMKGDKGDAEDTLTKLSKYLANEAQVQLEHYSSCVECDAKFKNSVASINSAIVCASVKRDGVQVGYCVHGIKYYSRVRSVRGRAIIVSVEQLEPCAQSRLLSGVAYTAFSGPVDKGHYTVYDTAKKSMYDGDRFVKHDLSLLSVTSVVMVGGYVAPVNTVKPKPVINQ

Human Thrombin = molecular target: T2, Human Thrombin (Homo sapiens, UniProt P00734); assay: biochemical
T2 construct: assay run at Reaction Biology Corporation

Human Cathepsin D = molecular target: T3, Human Cathepsin D (Homo sapiens, UniProt P07339); assay: biochemical
T3 construct: assay run at Reaction Biology Corporation
T3 sequence (P07339 65-412): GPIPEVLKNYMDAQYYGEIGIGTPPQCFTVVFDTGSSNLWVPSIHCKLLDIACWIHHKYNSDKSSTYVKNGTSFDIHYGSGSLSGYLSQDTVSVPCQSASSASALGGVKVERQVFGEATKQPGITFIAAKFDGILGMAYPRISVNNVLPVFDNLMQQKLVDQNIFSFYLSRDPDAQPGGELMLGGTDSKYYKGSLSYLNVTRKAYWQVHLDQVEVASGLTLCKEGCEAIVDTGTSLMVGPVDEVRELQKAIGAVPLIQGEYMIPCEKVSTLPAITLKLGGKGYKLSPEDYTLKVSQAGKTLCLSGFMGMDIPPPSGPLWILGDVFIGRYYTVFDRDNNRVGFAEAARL

Monoamine Oxidase = assay: CEREP enzyme inhibition; assay type: biochemical; conditions: 30 µM
Abl Kinase = molecular target: T4, Abl Kinase (Homo sapiens, UniProt P00519); assay: CEREP kinase inhibition; assay type: biochemical
T4 construct: purchased Eurofins Cerep

Aurora A Kinase = molecular target: T5, Aurora A Kinase (Homo sapiens, UniProt O14965); assay: CEREP kinase inhibition; assay type: biochemical
T5 construct: purchased Eurofins Cerep
T5 sequence (O14965 whole entry): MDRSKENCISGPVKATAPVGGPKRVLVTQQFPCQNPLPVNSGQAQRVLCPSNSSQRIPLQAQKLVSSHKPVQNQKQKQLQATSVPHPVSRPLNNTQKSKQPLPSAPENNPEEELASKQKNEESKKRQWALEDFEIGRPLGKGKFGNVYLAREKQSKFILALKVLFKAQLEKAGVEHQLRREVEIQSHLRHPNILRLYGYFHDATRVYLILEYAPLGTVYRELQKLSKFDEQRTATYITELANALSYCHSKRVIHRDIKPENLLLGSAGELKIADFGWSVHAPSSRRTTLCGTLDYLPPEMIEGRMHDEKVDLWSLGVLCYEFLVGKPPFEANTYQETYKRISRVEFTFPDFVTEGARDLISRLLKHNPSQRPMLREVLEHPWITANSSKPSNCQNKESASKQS

VEGFR2 Kinase = molecular target: T6, VEGFR2 Kinase (Homo sapiens, UniProt P35968); assay: CEREP kinase inhibition; assay type: biochemical
T6 construct: purchased Eurofins Cerep
T6 sequence (P35968 20-1356): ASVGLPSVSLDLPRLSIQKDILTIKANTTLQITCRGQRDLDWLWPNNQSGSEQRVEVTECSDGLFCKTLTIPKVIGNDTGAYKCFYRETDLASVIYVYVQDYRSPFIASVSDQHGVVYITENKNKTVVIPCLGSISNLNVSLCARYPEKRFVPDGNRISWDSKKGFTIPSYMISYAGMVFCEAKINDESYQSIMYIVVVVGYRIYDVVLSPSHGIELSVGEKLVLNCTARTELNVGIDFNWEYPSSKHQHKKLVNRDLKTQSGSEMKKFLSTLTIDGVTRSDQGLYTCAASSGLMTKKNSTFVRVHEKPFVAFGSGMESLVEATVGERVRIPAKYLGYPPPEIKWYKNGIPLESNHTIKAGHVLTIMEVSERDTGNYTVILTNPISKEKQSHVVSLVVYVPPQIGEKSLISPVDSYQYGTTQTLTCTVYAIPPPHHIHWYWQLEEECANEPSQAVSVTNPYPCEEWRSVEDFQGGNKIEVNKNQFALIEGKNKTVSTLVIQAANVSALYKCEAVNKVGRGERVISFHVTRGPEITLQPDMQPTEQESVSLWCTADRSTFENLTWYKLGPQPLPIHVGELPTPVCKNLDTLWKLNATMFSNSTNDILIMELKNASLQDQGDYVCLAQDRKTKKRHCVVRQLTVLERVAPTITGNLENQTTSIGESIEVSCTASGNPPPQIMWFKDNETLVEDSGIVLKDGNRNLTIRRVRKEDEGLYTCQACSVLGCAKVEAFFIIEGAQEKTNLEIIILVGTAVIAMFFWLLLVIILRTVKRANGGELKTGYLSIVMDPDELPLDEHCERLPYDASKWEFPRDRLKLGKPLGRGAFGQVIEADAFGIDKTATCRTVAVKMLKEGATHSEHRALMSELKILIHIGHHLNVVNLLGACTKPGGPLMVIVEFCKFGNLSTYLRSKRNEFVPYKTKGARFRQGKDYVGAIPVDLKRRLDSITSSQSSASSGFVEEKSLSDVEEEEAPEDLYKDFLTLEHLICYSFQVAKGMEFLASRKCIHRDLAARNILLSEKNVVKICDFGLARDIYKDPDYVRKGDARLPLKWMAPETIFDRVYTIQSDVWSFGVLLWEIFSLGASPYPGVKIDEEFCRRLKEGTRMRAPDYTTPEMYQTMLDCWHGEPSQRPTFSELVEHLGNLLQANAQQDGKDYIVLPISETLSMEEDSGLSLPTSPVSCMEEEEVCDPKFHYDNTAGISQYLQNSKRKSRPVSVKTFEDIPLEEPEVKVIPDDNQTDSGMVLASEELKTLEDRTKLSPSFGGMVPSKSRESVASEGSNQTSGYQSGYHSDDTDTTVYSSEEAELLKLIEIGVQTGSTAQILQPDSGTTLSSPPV

Dopamine Transporter = molecular target: T7, Dopamine Transporter (Homo sapiens, UniProt Q01959); assay: CEREP transporters-binding
T7 construct: purchased Eurofins Cerep

Serotonin Transporter = molecular target: T8, Serotonin Transporter (Homo sapiens, UniProt P31645); assay: CEREP transporters-binding
T8 construct: purchased Eurofins Cerep

[2] = molecular target: T9, Glucocorticoid Receptor (Binding) (Homo sapiens, UniProt P04150); assay: CEREP NHR-binding
T9 construct: purchased Eurofins Cerep

L-Type Ca (Nifedipine) = assay: CEREP ion channel-binding; conditions: 30 µM
GABAa1 Receptor = molecular target: T10, GABAa1 Receptor (Homo sapiens, UniProt P14867); assay: CEREP ion channel-binding
T10 construct: purchased Eurofins Cerep

NMDA Receptor = assay: CEREP ion channel-binding; conditions: 30 µM
[3] = test system: Nicotinic Ach Receptor (muscle); assay: CEREP ion channel-binding; conditions: 30 µM
[4] = test system: Nicotinic Ach Receptor (Neuronal); assay: CEREP ion channel-binding; conditions: 30 µM
Serotonin 3 = molecular target: T11, Serotonin 3 (Homo sapiens, UniProt P46098); assay: CEREP ion channel-binding
T11 construct: purchased Eurofins Cerep

in vitro = conditions: African green monkey, Mean CC50, n=3
CYP2D6 = CYP2D6 (Homo sapiens, UniProt P10635); assay: biochemical
Chain of CYP2D6 (P10635 whole entry): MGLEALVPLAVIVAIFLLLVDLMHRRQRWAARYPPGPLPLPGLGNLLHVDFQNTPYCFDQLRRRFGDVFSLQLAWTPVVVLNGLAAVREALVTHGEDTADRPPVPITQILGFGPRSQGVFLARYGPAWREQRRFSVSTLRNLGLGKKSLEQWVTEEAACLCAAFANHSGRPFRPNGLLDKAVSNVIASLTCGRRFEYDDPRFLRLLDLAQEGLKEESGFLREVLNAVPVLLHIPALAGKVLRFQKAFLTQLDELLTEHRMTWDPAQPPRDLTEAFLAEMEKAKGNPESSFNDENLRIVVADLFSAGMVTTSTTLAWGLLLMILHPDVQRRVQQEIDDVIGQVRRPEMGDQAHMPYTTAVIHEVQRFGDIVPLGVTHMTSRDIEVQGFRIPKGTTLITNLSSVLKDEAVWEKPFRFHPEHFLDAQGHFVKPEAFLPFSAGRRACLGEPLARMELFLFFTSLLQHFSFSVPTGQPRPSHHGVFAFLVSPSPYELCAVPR

[5] = RRCK passive permeability; conditions: dog, MDCK
[6] = In vitro genetic toxicity (bacterial reverse mutation assay); conditions: in vitro genetic toxicity studies; listed as PF-07957472

T1 sequence (Q14524 whole entry): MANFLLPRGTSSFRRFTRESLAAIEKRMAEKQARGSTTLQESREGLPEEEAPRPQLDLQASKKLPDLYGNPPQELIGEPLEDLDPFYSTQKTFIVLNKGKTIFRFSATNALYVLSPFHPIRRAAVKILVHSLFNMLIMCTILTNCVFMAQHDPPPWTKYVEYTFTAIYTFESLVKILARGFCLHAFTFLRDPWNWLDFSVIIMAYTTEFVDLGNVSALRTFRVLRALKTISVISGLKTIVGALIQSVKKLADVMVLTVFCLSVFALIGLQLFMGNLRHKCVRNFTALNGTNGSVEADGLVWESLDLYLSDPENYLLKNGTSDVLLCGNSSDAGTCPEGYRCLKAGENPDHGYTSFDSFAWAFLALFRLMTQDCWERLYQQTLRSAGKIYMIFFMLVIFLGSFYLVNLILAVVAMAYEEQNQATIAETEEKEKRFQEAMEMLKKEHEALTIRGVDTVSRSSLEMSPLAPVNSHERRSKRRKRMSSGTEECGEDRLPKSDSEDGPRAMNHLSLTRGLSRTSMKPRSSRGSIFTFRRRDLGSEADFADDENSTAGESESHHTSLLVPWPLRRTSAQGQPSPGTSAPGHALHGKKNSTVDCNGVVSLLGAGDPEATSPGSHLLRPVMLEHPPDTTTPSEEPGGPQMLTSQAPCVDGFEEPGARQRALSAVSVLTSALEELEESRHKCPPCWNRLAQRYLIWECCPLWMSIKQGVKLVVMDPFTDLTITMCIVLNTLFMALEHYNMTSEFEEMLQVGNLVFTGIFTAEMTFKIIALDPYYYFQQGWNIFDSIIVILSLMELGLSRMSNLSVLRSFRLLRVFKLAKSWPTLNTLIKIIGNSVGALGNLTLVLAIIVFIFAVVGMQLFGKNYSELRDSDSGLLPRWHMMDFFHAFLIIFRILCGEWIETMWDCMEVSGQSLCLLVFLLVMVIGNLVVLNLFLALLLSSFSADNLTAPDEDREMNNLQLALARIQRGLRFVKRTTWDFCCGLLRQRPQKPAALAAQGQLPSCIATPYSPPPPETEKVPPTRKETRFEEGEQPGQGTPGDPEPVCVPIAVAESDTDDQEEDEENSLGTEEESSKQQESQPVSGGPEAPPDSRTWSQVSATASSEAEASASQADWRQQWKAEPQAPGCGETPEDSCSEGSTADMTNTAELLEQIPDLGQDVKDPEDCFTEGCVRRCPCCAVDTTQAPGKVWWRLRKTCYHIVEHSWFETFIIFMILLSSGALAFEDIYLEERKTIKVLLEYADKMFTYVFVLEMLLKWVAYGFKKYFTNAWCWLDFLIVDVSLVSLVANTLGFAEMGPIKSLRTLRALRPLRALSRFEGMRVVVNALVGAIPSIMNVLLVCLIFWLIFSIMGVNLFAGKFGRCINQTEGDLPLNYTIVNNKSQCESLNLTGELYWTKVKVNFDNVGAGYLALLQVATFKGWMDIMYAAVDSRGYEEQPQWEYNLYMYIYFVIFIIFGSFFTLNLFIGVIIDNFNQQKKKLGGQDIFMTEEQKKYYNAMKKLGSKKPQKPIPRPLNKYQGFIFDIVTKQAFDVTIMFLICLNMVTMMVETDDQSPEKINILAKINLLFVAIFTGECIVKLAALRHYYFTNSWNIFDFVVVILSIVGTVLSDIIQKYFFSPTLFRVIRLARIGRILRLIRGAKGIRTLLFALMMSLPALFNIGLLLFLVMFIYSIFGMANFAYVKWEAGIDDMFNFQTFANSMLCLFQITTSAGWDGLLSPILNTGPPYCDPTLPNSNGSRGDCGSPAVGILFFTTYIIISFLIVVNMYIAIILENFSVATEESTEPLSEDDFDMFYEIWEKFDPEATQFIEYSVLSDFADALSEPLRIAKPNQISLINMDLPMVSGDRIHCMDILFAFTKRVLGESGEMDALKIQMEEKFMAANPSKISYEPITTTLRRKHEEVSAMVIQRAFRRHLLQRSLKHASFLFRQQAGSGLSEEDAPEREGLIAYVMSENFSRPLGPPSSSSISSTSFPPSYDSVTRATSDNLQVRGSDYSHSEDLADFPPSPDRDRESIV

Cc1ccc(N2CCN(C)CC2)cc1C(=O)NC1(c2cc(-c3cnn(C)c3)nc3ccccc23)CC1 [Compound 4]
IC50 [1]: > 100 µM
Ki (hCoV-229E_PLpro2): > 10 µM
activity on 229E PL^pro (hCoV-229E_PLpro2): nearly inactive
IC50 (Human Thrombin): > 100 µM
IC50 (Human Cathepsin D): > 100 µM
% inhibition (Monoamine Oxidase): 16%
inhibition at 30 µM (Abl Kinase): 2%
inhibition at 30 µM (Aurora A Kinase): -1%
inhibition at 30 µM (VEGFR2 Kinase): 11%
inhibition at 30 µM (Dopamine Transporter): 8%
inhibition at 30 µM (Serotonin Transporter): 8%
inhibition at 30 µM [2]: 2%
% inhibition (L-Type Ca (Nifedipine)): -6%
inhibition at 30 µM (GABAa1 Receptor): 10%
% inhibition (NMDA Receptor): -2%
% inhibition [3]: 2%
% inhibition [4]: -6%
inhibition at 30 µM (Serotonin 3): -10%
CC50 (in vitro): 69.3 µM
IC50 (CYP2D6): > 30 µM
Papp [5]: 31.4 ×10⁻⁶ cm/s
In vitro genotoxicity screen [6]: not mutagenic or clastogenic
